Experiments:
Format in all cases: in vivo
Corn seeds [1] = assay: Corn seed germination in petriplates (Example 2); conditions: 5 days after plating
Procedure: Corn seeds were plated in petriplates containing 5 ml of treatment solution on a filter paper. Corn seeds were placed on moist filter paper for germination. Similarly, wheat seeds (spring wheat) were placed in petriplates. […] Roots were harvested and their length measured by WinRhizo system.

Corn seeds [2] = assay: Greenhouse corn seed application, seedling dry weight (Example 3); conditions: alone at 10^−8 M; harvested 10 days after planting (FIG. 9)
Procedure: Corn seeds were treated with various combinations of Pea CO (10^-8 M) and Pea LCO (10-8, 10^-9 M). Seeds were planted in greenhouse plastic pots containing 1:1 sand:perlite mixture. Seedlings were harvested 10 days after planting, washed clean and then dried in an oven at 60 C for 48 hr.

corn seed = assay: Field trials, grain yield when applied to corn seed before planting (Example 5)
corn foliage = assay: Field trials, grain yield when applied to corn foliage (Example 4)
[3] = test system: Hybrid corn seeds (92L90); assay: Greenhouse corn seed treatment, plant dry weight (Example 1); conditions: seed treatment solution 10^-8 M
Procedure: Two seed treatment experiments using only Pea LCO, Pea CO and the CO mixtures obtained from chitosan by enzymatic process (structurally distinct from the Pea CO, and also referred to in the examples as the “China CO”) were performed in greenhouse. Hybrid corn seeds (92L90, Peterson Farm, USA) were treated with treatment solution (10^-8 M) at the rate of 3 fl oz/100 lbs of seed. Seeds were planted in plastic pots containing 1:1 Sand:Perlite mixture. Seeds were allowed to grow for about 3-4 weeks and then they were harvested and their dry weight measured.

[4] = seed treatment, CO compared to LCO, less

Q: For `CC(=O)NC1C(O)OC(CO)C(OC2OC(CO)C(OC3OC(CO)C(OC4OC(CO)C(OC5OC(CO)C(O)C(O)C5N)C(O)C4NC(C)=O)C(O)C3NC(C)=O)C(O)C2NC(C)=O)C1O` (stereo not shown) [CO (CO-V)], which “seed germination” value (Corn seeds [1]; 5 ml treatment solution on filter paper, vs control (FIG. 7)) is on record?
A: Its value is “increased germination”.

Q: What about the “seedling root length” value (Corn seeds [1]; WinRhizo system, vs control) of the same compound?
A: The value was “significantly increased seedling root length over control”.

Q: What about the “corn seedling dry weight” value (Corn seeds [2]) of the same compound?
A: Its value is “increased corn seedling dry weight”.

Q: And the “YIELD, Response Increase (% of Control)” value (corn seed; seed treatment)?
A: Its value is 3.6 % of Control.

Q: And the “yield enhancement when applied to corn seed” value (corn seed; seed treatment)?
A: The value was “provided yield enhancement above the Control”.

Q: And the “YIELD, Mean (N = 10)” value (corn seed; seed treatment 1×10-8 molar, 1 μg/acre, 3 fluid ounces per 50 pounds of seed, 10 field trials)?
A: The value was 188.0 bu/A.

Q: What about the “CO mean yield less than LCO” value (corn seed; [4]) of the same compound?
A: Its value is 4.6 bu/A.

Q: And the “less positive yield responses than LCO” value (corn seed; [4])?
A: Its value is 10.0%.

Q: And the “less yield increase above the Control than LCO” value (corn seed; [4])?
A: The value was 2.5%.

Q: What about the “Positive Yield Response (%)” value (corn seed; seed treatment, share of the 10 trials with positive yield enhancement) of the same compound?
A: Its value is 80.0%.

Q: What about the “YIELD, Response (bu/A)” value (corn seed; seed treatment, versus Control (water)) of the same compound?
A: Its value is 6.5 bu/A.

Q: What about the “yield enhancement as a foliar treatment” value (corn foliage) of the same compound?
A: The value was “performed at least twice better than the LCO”.

Q: And the “CO mean yield better than foliar LCO response” value (corn foliage; CO compared to LCO)?
A: Its value is 5.0 bu/A.

Q: What about the “YIELD, Response Increase (% of Control)” value (corn foliage; foliar) of the same compound?
A: The value was 4.8 % of Control.

Q: What about the “YIELD, Mean (N = 16)” value (corn foliage; foliar, 4 ounces per acre with glyphosate herbicide, 16 field trials) of the same compound?
A: The value was 201.8 bu/A.

Q: And the “higher yield increase than LCO” value (corn foliage; foliar, CO compared to LCO)?
A: The value was 2.6%.

Q: And the “trials with a positive response, better than LCO” value (corn foliage; foliar, CO compared to LCO)?
A: Its value is 18.8%.

Q: What about the “Positive Yield Response (%)” value (corn foliage; foliar, share of the 16 trials with positive yield enhancement) of the same compound?
A: Its value is 93.8%.

Q: And the “YIELD, Response (bu/A)” value (corn foliage; foliar, versus Control (water))?
A: Its value is 9.2 bu/A.

Q: And the “shoot, root and total biomass / plant dry weight compared to LCO” value ([3]; both experiments)?
A: Its value is “greater shoot, root and total biomass increase over non-inventive and comparable LCO”.

Q: And the “dry weight increase over LCO” value ([3]; first trial (FIG. 5), 3 fl oz/100 lbs of seed, harvested after about 3-4 weeks)?
A: Its value is 11.84%.

Q: And the “dry weight-increase over LCO” value ([3]; second trial (FIG. 6), 3 fl oz/100 lbs of seed, harvested after about 3-4 weeks)?
A: The value was 12.63%.

Source: US9414591B2, “Chitooligosaccharides and methods for use in enhancing corn growth” (NOVOZYMES BIOAG A/S, priority 2011, dated 2016)
